Structures are written as SMILES.

For this assay, the system named is CHK2 phosphorylation (phospho-Thr68) in HCT116 cells. The experiment in a line: Cellular pCHK2 assay, bleomycin-induced phosphorylation of CHK2 (phospho-Thr68), immunofluorescence high content. The class given is cell-based. The conditions noted are these: Homo sapiens, HCT-116; HCT116 cells, 10 μM bleomycin, 4 h; read-out: IC50 (pCHK2). The text has this: For the identification of substances which inhibit the phosphorylation of the protein kinase CHK2 at the amino acid threonine 68, an immunofluorescence-based “high content” analysis assay was used in HCT116 cells.
In vitro cell-based immunofluorescence assay for the identification of inhibitors of bleomycin-induced phosphorylation of CHK2 (phospho-Thr68) in the human colon carcinoma cell line HCT116:
HCT116 cells are sown out in a defined cell density in 384-well plates in culture medium (DMEM high glucose, 2 mM GlutaMax, 1 mM Na pyruvate, 10% FCS) and incubated overnight at 37° C. and 10% of CO2. On the following day, the test substances are added in a defined concentration range (1 nM to 30 μM) in combination with 10 μM bleomycin, where the concentration of the solvent DMSO is kept constant at 0.5%. After incubation for four hours at 37° C. and 10% of CO2, the cells are fixed (5 min, 4% formaldehyde in PBS), permeabilised (10 min, 0.2% Triton X-100 in PBS) and, after blocking of nonspecific binding sites (10% goat serum, 1% BSA in PBS), incubated overnight at 4° C. with a specific anti-pCHK2 antibody (cell signalling #2661). pCHK2 (Thr68) is determined using an Alexa488-labelled secondary anti-rabbit IgG antibody. Parallel staining of DNA with propidium iodide enables determination of the cell count. The pCHK2 signal is detected using a high-content imager (Molecular Devices IMX Ultra) and automatic image analysis using the MetaXpress software belonging to the instrument. The number of cell nuclei which have a pCHK2 signal above a defined background is determined.
A word on the IC50: it is the concentration at which inhibition is half-maximal. Consider `COc1cc2ncc3c(c2cc1-c1ccc2nc(C)[nH]c2c1)n(-c1cn(C)nc1C)c(=O)n3C` [compound 132, 1-(1,3-Dimethyl-1H-pyrazol-4-yl)-7-methoxy-3-methyl-8-(2-methyl-3H-benzo-imidazol-5-yl)-1,3-dihydro-imidazo[4,5-c]quinolin-2-one], for which the IC50 is 200 to 1000 nM. To `COc1cnc(-n2c(=O)n(C)c3cnc4cc(OC)c(-c5cn(C)nn5)cc4c32)c(F)c1` [compound 133, 1-(3-Fluoro-5-methoxy-pyridin-2-yl)-7-methoxy-3-methyl-8-(1-methyl-1H-1,2,3-triazol-4-yl)-1,3-dihydroimidazo[4,5-c] quinolin-2-one] belongs 200 to 1000 nM; to `COc1cc2ncc3c(c2cc1-c1cnn[nH]1)n(-c1c(F)cncc1OC)c(=O)n3C` [compound 134, 1-(3-Fluoro-5-methoxy-pyridin-4-yl)-7-methoxy-3-methyl-8-(3H-1,2,3-triazol-4-yl)-1,3-dihydroimidazo-[4,5-c]quinolin-2-one], 200 to 1000 nM. To `CCn1cc(-n2c(=O)n(C)c3cnc4cc(OC)c(-c5cn(C)nc5C)cc4c32)c(C)n1` [compound 135, 8-(1,3-Dimethyl-1H-pyrazol-4-yl)-1-(1-ethyl-3-methyl-1H-pyrazol-4-yl)-7-methoxy-3-methyl-1,3-dihydro-imidazo[4,5-c]quinolin-2-one] belongs 200 to 1000 nM; to `CNC(=O)c1cnc(-n2c(=O)n(C)c3cnc4cc(OC)c(-c5cn(C)nc5C)cc4c32)c(F)c1` [compound 139, 6-[8-(1,3-Dimethyl-1H-pyrazol-4-yl)-7-methoxy-3-methyl-2-oxo-2,3-dihydro-imidazo[4,5-c]quinolin-1-yl]-5-fluoro-N-methyl-nicotinamid], 200 to 1000 nM. To `CCn1cc(-c2cc3c(cc2OC)ncc2c3n(-c3c(F)cncc3OC)c(=O)n2C)c(C)n1` [compound 142, 8-(1-Ethyl-3-methyl-1H-pyrazol-4-yl)-1-(3-fluoro-5-methoxypyridin-4-yl)-7-methoxy-3-methyl-1,3-dihydroimidazo[4,5-c] quinolin-2-one] belongs 200 to 1000 nM. `COc1cc2ncc3c(c2cc1-c1cnn(C(F)F)c1)n(-c1c(F)cncc1OC)c(=O)n3C` [compound 143, 8-(1-Difluoromethyl-1H-pyrazol-4-yl)-1-(3-fluoro-5-methoxypyridin-4-yl)-7-methoxy-3-methyl-1,3-dihydroimidazo[4,5-c] quinolin-2-one]: the IC50 lay within 200 to 1000 nM. In the case of `COc1cnc(-n2c(=O)n(C)c3cnc4cc(OC)c(-c5ccc6nc(C)[nH]c6c5)cc4c32)c(F)c1` [compound 144, 1-(3-Fluoro-5-methoxy-pyridin-2-yl)-7-methoxy-3-methyl-8-(2-methyl-3H-benzoimidazol-5-yl)-1,3-dihydroimidazo[4,5-c]-quinolin-2-one] it was 200 to 1000 nM.

`COc1cc2ncc3c(c2cc1-c1cnn(C)c1)n(-c1c(F)cncc1OC(F)F)c(=O)n3C` [compound 146, 1-(3-Difluoromethoxy-5-fluoropyridin-4-yl)-7-methoxy-3-methyl-8-(1-methyl-1H-pyrazol-4-yl)-1,3-dihydroimidazo[4,5-c]-quinolin-2-one]: the IC50 was below 200 nM. In the case of `COc1cc2ncc3c(c2cc1-c1cnn(C)c1)n(-c1c(F)cncc1OCF)c(=O)n3C` [compound 148] it was below 200 nM; in that of `[2H]C([2H])([2H])Oc1cncc(F)c1-n1c(=O)n(C)c2cnc3cc(OC)c(-c4cn(C)nc4C)cc3c21` [compound 150, 8-(1,3-Dimethylpyrazol-4-yl)-1-[3-fluoro-5-(trideuterio-methoxy)-4-pyridyl]-7-methoxy-3-methyl-imidazo-[4,5-c]quinolin-2-one], below 200 nM; in that of `COc1cc2ncc3c(c2cc1-c1n[nH]cc1C)n(-c1cn(C)nc1C)c(=O)n3C` [compound 151, 1-(1,3-Dimethyl-1H-pyrazol-4-yl)-7-methoxy-3-methyl-8-(4-methyl-1H-pyrazol-3-yl)-1,3-dihydroimidazo[4,5-c] quinolin-2-one], below 200 nM.

Values taken from patent US10745399B2 (priority 2015, dated 2020).
